Experimental findings from patent US20230346831A1, “METHODS FOR TREATING […] USING LOW DOSE CARBON MONOXIDE” (priority 2020, published 2023) are described below.

Structures are written as SMILES.

One assay relates to MDA-MB-231/TGL cells. The experiment in a line: experimental tail vein lung metastasis assay, human breast cancer xenograft. In kind it is in vivo, NSG mice. The protocol:
NSG mice were generated by the Jackson Laboratory. All mice were housed in accordance with the institutional guidelines. All procedures involving mice were approved by the institutional animal care and use committee of Weill Cornell Medicine. 1 × 10^5 or 5 × 10^4 MDA-MB-231/TGL cells in 150 µl PBS were injected into the tail veins of female NSG mice at the age of 7-8 weeks (n=5/group for 1× 10^5 cells and n = 6/group for 5 × 10^4 cells). 1× 10^4 8988T/TGL cells in 100 µl PBS were injected into spleen of NSG mice at age of 7-8 weeks (n=4/group, male and female) to observe the liver metastasis (G. Zhang, & Y. N. Du, Methods Mol Biol 1882, 309-320 (2019)). The spleen was removed after the injection. Starting one day after injection, mice were randomized into two groups. One group was kept in a regular mouse holding room (control), and the other group was put into a chamber delivering 250 ppm CO 3 hours daily. Mice were subjected to bioluminescent imaging using the In Vivo Imaging System Spectrum (PerkinElmer, Waltham, MA) at 0, 1, 3 days and then weekly after tumor cells were injected until the final time points, as described previously by Y. C. Du, D. S. Klimstra, & H. Varmus, PLoS One 4, e6932 (2009)). Luciferase signals were transformed to nature log scale before analysis. GEE method was used to test the overall difference of tumor growth over time. All analyses were performed in statistical software SAS Version 9.4 (SAS Institute, Cary, NC).
Mouse tissues were removed and fixed in 10% buffered formalin overnight at room temperature. Formalin-fixed/paraffin-embedded sections (5-µm) were deparaffinized and rehydrated by passage through a graded xylene/ethanol series before staining. Immunochemistry was performed using the VECTASTAIN Elite ABC kit following the manufacturer’s instructions. Tumor number and tumor size were quantified by scanning the whole tissue slide of each mouse under microscope. The size of tumor area of each tumor was measured by the cellSens imaging software (Olympus, Tokyo, Japan). Total tumor area of each mouse or total tumor number of each mouse was plotted. The primary antibodies used were cleaved caspase 3 (1:333; Cell Signaling Tech (Cat. No. 9661), Danvers, MA) and Ki67 (1:1000, Vector Labs (Cat. No. VP-K451), Burlingame, CA).
To determine whether 250 ppm CO inhibits cancer metastasis in vivo, an experimental tail vein metastasis assay with TNBC MDA-MB-231 cell line was performed. 0.1 million MDA-MB-231/TGL (luciferase reporter) cells were injected into the tail vein of the NOD/scid-lL2Rgc knockout (NSG) immunodeficient mice. Mice were randomly divided in to two groups after injection. […]

The next assay has as its system HiF1α. The experiment in a line: Western blot analysis. In kind it is cell-based, human. To be noted: MCF7/TGL and MDA-MB-231/TGL cells; 250 ppm CO for 16 hours vs standard incubator. As for the experimental part:
1.5 × 10^6 cells were seeded in 6-cm cell culture plates with DMEM containing 10% FBS, 0.2 mM L-glutamine and 1% penicillin/streptomycin. Additionally, MCF7/TGL/pQ was cultured in media containing 0.5 µgml^-1 puromycin and 25 mM HEPES. After 16 hours of incubation, cells were lysed with RIPA buffer (0.1% SDS, 1% TritonX-100, 0.5% sodium deoxycholate, 25 mM Tris pH 8.0, 150 mM NaCl, and 1 mM EDTA) supplemented with a protease inhibitor mixture and PhosSTOP (Roche, Basel, Switzerland). Proteins were quantified with Bradford assay (Bio-Rad, Hercules CA). Equal amounts of proteins were separated with SDS-PAGE and transferred to nitrocellulose membranes. […] Protein bands were visualized by enhanced chemical luminescence (Pierce, Dallas, TX).
To investigate whether 250 ppm CO induces hypoxia, HiF1α protein levels in low-dose CO-treated MCF7/TGL and MDA-MB-231/TGL cells were examined. […] To assess the intracellular heme levels affected by low-dose CO treatment, oxidized heme levels in the form of hemin (Fe^3+ state) were measured because free heme (Fe^2+ state) is readily oxidized and cannot be measured. […]
In general terms: A western blot detects proteins with antibodies after separation by electrophoresis.

Consider `[C-]#[O+]` [CO, Carbon monoxide], for which the “metastatic tumor burden in lung sections (histological analysis)” value in the assay on MDA-MB-231/TGL cells (0.1 million MDA-MB-231/TGL cells tail vein, NSG mice, 250 ppm CO gas 3 hours daily, 23-day time point, vs control) is recorded as “significantly lower”; with MDA-MB-231/TGL cells (5 × 10^4 MDA-MB-231/TGL cells tail vein, 250 ppm CO 3 hours daily, 7 days/week, 25 days after the injection) it was “significantly lower”. For the same compound, the “appearance / signs of sickness of the mice” value in the assay on MDA-MB-231/TGL cells (0.1 million MDA-MB-231/TGL cells tail vein, 250 ppm CO 3 hours daily, control group lethargic after 23 days) was “looked healthy and had no signs of sickness”. Moreover, in the assay with MDA-MB-231/TGL cells (5 × 10^4 MDA-MB-231/TGL cells tail vein, 250 ppm CO 3 hours daily, 7 days/week, imaging to 3 weeks, P = 0.0016, GEE method), the “bioluminescent signals (whole mice) over time” value was “significantly lower”. Also, the HiF1α protein levels entry in the assay with HiF1α is on record as “not changed”.
